Experimental data reported in patent publication US10087191B2, “Piperidine derivative and preparation method and pharmaceutical use thereof” (Jiangsu Hengrui Medicine Co., Ltd., priority 2015, dated 2018).

Test system: MCF7 cells
Assay: Inhibition of the proliferation of MCF7 cells (Cell Titer-Glo)
Format: cell-based
Details: Homo sapiens, MCF-7 cells, 72 hours, read-out: IC50 value of inhibition effect on the proliferation of MCF7 cells
Experimental: The object of this experiment was to determine the inhibition effect of the compounds on the proliferation activity of MCF7 cells, and the in vitro activity of the compounds was evaluated according to the IC50 value.
After incubation for 24 hours, the medium was removed, then 90 μl of the medium containing 2% FBS and 10 μl of the drug were added to each well, 10 μl of DMSO were added to the control group, and the blank group contained only 100 μl medium containing 2% FBS. The plate was gently shaken and incubated in a incubator at 37° C., 5% CO2. After 72 hours, 50 μl of mixed Cell Titer-Glo (Promega, Cat. No. G7571) were added to each well. The plate was shaken until the ingredients were well mixed, and placed at room temperature for 10 minutes, then the chemiluminescence signal value was determined.
The values of the chemiluminescence signals vs the logarithmic concentrations of the compounds were plotted using Graghpad Prism to obtain IC50 values.

| Compound | IC50 [nM] |
| --- | --- |
| CC1Cc2cc(O)ccc2C(c2c(F)cc(/C=C/C(=O)O)cc2F)N1CC(C)(C)F [Example 3, (E)-3-(3,5-difluoro-4-((1S,3R/1R,3S)-2-(2-fluoro-2-methylpropyl)-6-hydroxy-3-methyl-1,2,3,4-tetrahydroisoquinolin-1-yl)phenyl)acrylic acid] | 2.12 |
| CCn1cc(-c2ccc3c(c2)C[C@H](C)N(CC(C)(C)F)[C@H]3c2c(F)cc(/C=C/C(=O)O)cc2F)cn1 [Example 22, (E)-3-(4-((1R,3S)-6-(1-ethyl-1H-pyrazol-4-yl)-2-(2-fluoro-2-methylpropyl)-3-methyl-1,2,3,4-tetrahydroisoquinolin-1-yl)-3,5-difluorophenyl)acrylic acid] | 17.4 |
| CC1Cc2cc(NC(=O)N(C)C)ccc2C(c2c(F)cc(/C=C/C(=O)O)cc2F)N1CC(C)(C)F [Example 44, (E)-3-(4-((1S,3R/1R,3S)-6-(3,3-dimethylureido)-2-(2-fluoro-2-methylpropyl)-3-methyl-1,2,3,4-tetrahydroisoquinolin-1-yl)-3,5-difluorophenyl)acrylic acid] | 1.59 |
| CCc1nc(-c2ccc3c(c2)CC(C)N(CC(C)(C)F)C3c2c(F)cc(/C=C/C(=O)O)cc2F)no1 [Example 46, (E)-3-(4-((1S,3R/1R,3S)-6-(5-ethyl-1,2,4-oxadiazol-3-yl)-2-(2-fluoro-2-methylpropyl)-3-methyl-1,2,3,4-tetrahydroisoquinolin-1-yl)-3,5-difluorophenyl)acrylic acid] | 3.66 |
| CC1Cc2cc(-c3nnn(C)n3)ccc2C(c2c(F)cc(/C=C/C(=O)O)cc2F)N1CC(C)(C)F [Example 51, (E)-3-(3,5-difluoro-4-((1S,3R/1R,3S)-2-(2-fluoro-2-methylpropyl)-3-methyl-6-(2-methyl-2H-tetrazol-5-yl)-1,2,3,4-tetrahydroisoquinolin-1-yl)phenyl)acrylic acid] | 3.07 |
| Cc1noc(-c2ccc3c(c2)CC(C)N(CC(C)(C)F)C3c2c(F)cc(/C=C/C(=O)O)cc2F)n1 [Example 53, (E)-3-(3,5-difluoro-4-((1S,3R/1R,3S)-2-(2-fluoro-2-methylpropyl)-3-methyl-6-(3-methyl-1,2,4-oxadiazol-5-yl)-1,2,3,4-tetrahydroisoquinolin-1-yl)phenyl)acrylic acid] | 15 |
| CC1Cc2c(oc3c(F)cccc23)C(c2c(F)cc(/C=C/C(=O)O)cc2F)N1CC(C)(C)F [Example 84, (E)-3-(3,5-difluoro-4-((1R,3R/1S,3S)-8-fluoro-2-(2-fluoro-2-methylpropyl)-3-methyl-1,2,3,4-tetrahydrobenzofuro[2,3-c]pyridin-1-yl)phenyl)acrylic acid] | 4.21 |
| CC1Cc2c(oc3ccc(Br)cc23)C(c2c(F)cc(/C=C/C(=O)O)cc2F)N1CC(C)(C)F [Example 87, (E)-3-(4-((1R,3R/1S,3S)-6-bromo-2-(2-fluoro-2-methylpropyl)-3-methyl-1,2,3,4-tetrahydrobenzofuro[2,3-c]pyridin-1-yl)-3,5-difluorophenyl)acrylic acid] | 9.27 |
| CC1Cc2c(oc3ccc(-c4cccnc4)cc23)C(c2c(F)cc(/C=C/C(=O)O)cc2F)N1CC(C)(C)F [Example 90, (E)-3-(3,5-difluoro-4-((1R,3R/1S,3S)-2-(2-fluoro-2-methylpropyl)-3-methyl-6-(pyridin-3-yl)-1,2,3,4-tetrahydrobenzofuro[2,3-c]pyridin-1-yl)phenyl)acrylic acid] | 0.21 |
| CC(C)CN1C(C)Cc2c(ccc3[nH]ncc23)C1c1c(F)cc(/C=C/C(=O)O)cc1F [Example 92, (E)-3-(3,5-difluoro-4-((6S,8R/6R,8S)-7-isobutyl-8-methyl-6,7,8,9-tetrahydro-3H-pyrazolo[4,3-f]isoquinolin-6-yl)phenyl)acrylic acid] | 0.99 |

More lines, now with the values ahead:

| IC50 [nM] | Compound |
| --- | --- |
| 0.08 | Cc1ncc(-c2ccc3c(c2)C[C@@H](C)N(CC(C)(C)F)[C@@H]3c2c(F)cc(/C=C/C(=O)O)cc2F)s1 [Example 11, (E)-3-(3,5-difluoro-4-((1S,3R)-2-(2-fluoro-2-methylpropyl)-3-methyl-6-(2-methylthiazol-5-yl)-1,2,3,4-tetrahydroisoquinolin-1-yl)phenyl)acrylic acid] |
| 0.22 | C[C@@H]1Cc2cc(-c3cn[nH]c3)ccc2[C@@H](c2c(F)cc(/C=C/C(=O)O)cc2F)N1CC(C)(C)F [Example 25, (E)-3-(3,5-difluoro-4-((1S,3R)-2-(2-fluoro-2-methylpropyl)-3-methyl-6-(1H-pyrazol-4-yl)-1,2,3,4-tetrahydroisoquinolin-1-yl)phenyl)acrylic acid] |
| 3.71 | CC1Cc2cc(-c3cccnc3)ccc2C(c2c(F)cc(/C=C/C(=O)O)cc2F)N1CC(C)(C)F [Example 28, (E)-3-(3,5-difluoro-4-((1S,3R/1R,3S)-2-(2-fluoro-2-methylpropyl)-3-methyl-6-(pyridin-3-yl)-1,2,3,4-tetrahydroisoquinolin-1-yl)phenyl)acrylic acid] |
| 4.82 | CNC(=O)Nc1ccc2c(c1)CC(C)N(CC(C)(C)F)C2c1c(F)cc(/C=C/C(=O)O)cc1F [Example 29, (E)-3-(3,5-difluoro-4-((1S,3R/1R,3S)-2-(2-fluoro-2-methylpropyl)-3-methyl-6-(3-methylureido)-1,2,3,4-tetrahydroisoquinolin-1-yl)phenyl)acrylic acid] |
| 0.01 | C[C@H]1Cc2cc(-c3cnn(C)c3)ccc2[C@H](c2c(F)cc(/C=C/C(=O)O)cc2F)N1CC(C)(C)F [Example 56, (E)-3-(3,5-difluoro-4-((1R,3S)-2-(2-fluoro-2-methylpropyl)-3-methyl-6-(1-methyl-1H-pyrazol-4-yl)-1,2,3,4-tetrahydroisoquinolin-1-yl)phenyl)acrylic acid] |
| 3.58 | CC1Cc2cc(-c3ccc(-c4cnn(C)c4)nc3)ccc2C(c2c(F)cc(/C=C/C(=O)O)cc2F)N1CC(C)(C)F [Example 61, (E)-3-(3,5-difluoro-4-((1S,3R/1R,3S)-2-(2-fluoro-2-methylpropyl)-3-methyl-6-(6-(1-methyl-1H-pyrazol-4-yl)pyridin-3-yl)-1,2,3,4-tetrahydroisoquinolin-1-yl)phenyl)acrylic acid] |
